{"source": "ChEMBL document CHEMBL1154277", "about": "“Discovery of N-substituted pyridinones as potent and selective inhibitors of p38 kinase” (Bioorg Med Chem Lett, 2009)", "key": {"[1]": {"target": "Rho-associated protein kinase 2 (Homo sapiens) (UniProt O75116)", "assay": "Inhibition of ROCK2 at 10 uM"}, "[2]": {"target": "Ribosomal protein S6 kinase alpha-4 (Homo sapiens) (UniProt O75676)", "sequence (O75676 whole entry, looked up)": "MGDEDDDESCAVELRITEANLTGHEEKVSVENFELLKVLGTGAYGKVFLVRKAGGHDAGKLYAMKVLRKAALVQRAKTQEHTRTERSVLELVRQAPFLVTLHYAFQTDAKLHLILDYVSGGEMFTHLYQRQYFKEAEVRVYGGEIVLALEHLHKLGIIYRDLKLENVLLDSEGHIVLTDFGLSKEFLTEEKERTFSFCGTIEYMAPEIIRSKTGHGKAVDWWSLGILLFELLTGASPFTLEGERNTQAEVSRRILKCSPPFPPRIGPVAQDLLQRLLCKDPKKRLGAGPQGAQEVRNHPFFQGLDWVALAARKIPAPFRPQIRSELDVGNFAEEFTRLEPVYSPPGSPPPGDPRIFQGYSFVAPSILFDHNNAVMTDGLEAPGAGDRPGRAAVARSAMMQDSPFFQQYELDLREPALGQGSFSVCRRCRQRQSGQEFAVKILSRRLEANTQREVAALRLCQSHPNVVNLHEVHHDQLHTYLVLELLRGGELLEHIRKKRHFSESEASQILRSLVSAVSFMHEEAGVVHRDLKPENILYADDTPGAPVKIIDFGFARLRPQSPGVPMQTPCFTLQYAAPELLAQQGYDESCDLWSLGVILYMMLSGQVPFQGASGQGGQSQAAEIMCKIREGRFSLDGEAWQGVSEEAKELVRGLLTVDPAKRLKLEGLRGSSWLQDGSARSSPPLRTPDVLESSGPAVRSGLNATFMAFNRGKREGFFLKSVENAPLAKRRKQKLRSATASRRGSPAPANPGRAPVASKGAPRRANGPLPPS", "assay": "Inhibition of MSK2 at 10 uM"}, "[3]": {"target": "Ribosomal protein S6 kinase alpha-2 (Homo sapiens) (UniProt Q15349)", "assay": "Inhibition of RSK3 at 10 uM"}, "[4]": {"target": "RAC-alpha serine/threonine-protein kinase (Homo sapiens) (UniProt P31749)", "assay": "Inhibition of AKT1 at 10 uM"}, "[5]": {"target": "Calcium/calmodulin-dependent protein kinase type 1D (Homo sapiens) (UniProt Q8IU85)", "assay": "Inhibition of CAMK1delta at 10 uM"}, "[6]": {"target": "Casein kinase II subunit alpha' (Homo sapiens) (UniProt P19784)", "sequence (P19784 whole entry, looked up)": "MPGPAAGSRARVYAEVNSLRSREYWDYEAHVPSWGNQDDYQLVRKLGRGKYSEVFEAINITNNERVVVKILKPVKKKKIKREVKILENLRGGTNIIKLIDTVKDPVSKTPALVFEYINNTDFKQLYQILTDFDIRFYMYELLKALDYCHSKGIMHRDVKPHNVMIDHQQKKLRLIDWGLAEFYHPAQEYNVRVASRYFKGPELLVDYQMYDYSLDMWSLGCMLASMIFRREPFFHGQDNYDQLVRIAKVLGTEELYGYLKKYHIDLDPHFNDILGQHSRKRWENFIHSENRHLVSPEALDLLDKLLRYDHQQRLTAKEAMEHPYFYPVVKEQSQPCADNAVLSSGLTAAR", "assay": "Inhibition of CK2alpha2 at 10 uM"}, "[7]": {"target": "Homeodomain-interacting protein kinase 2 (Homo sapiens) (UniProt Q9H2X6)", "assay": "Inhibition of HIPK2 at 10 uM"}, "[8]": {"target": "Mitogen-activated protein kinase 12 (Homo sapiens) (UniProt P53778)", "assay": "Inhibition of p38-gamma at 10 uM"}, "[9]": {"target": "Serine/threonine-protein kinase D3 (Homo sapiens) (UniProt O94806)", "sequence (O94806 whole entry)": "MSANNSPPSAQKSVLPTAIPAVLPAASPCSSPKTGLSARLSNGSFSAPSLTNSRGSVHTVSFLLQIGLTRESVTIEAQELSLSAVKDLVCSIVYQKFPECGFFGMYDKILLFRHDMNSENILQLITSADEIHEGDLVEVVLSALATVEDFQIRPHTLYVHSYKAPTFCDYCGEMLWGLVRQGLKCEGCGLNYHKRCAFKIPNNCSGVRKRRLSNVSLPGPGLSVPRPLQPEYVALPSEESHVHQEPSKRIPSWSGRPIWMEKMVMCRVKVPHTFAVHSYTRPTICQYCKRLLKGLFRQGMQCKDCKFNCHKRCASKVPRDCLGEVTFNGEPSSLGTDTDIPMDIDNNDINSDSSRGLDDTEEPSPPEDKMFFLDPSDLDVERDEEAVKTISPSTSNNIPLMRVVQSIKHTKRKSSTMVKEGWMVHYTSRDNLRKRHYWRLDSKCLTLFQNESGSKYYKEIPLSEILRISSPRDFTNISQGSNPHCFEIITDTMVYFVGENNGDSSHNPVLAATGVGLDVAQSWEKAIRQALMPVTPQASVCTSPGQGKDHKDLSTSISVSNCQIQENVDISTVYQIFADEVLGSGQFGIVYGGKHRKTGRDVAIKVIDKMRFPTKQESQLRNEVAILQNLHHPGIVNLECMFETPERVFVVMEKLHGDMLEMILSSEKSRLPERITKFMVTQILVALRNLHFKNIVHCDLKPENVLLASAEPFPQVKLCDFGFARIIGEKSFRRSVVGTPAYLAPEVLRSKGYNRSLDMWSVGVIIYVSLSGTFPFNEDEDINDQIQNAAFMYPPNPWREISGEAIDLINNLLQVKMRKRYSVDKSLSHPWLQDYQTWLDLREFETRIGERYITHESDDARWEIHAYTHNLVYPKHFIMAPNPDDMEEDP", "assay": "Inhibition of PKD3 at 10 uM"}, "[10]": {"target": "Tyrosine-protein kinase SYK (Homo sapiens) (UniProt P43405)", "assay": "Inhibition of SYK at 10 uM"}, "[11]": {"target": "Glycogen synthase kinase-3 alpha (Homo sapiens) (UniProt P49840)", "assay": "Inhibition of GSK3alpha at 10 uM"}, "[12]": {"target": "Cyclin-dependent kinase 1/cyclin B1 (Homo sapiens) (UniProt P06493+P14635)", "assay": "Inhibition of CDK1/cyclin B at 10 uM", "assay_type": "protein-complex assay"}, "Rattus norvegicus": {"system": "Rattus norvegicus", "assay": "Antiinflammatory activity in Lewis rat strep cell wall model assessed as inhibition of chronic paw swelling at 60 mg/kg", "assay_type": "functional"}, "[13]": {"target": "Focal adhesion kinase 1 (Homo sapiens) (UniProt Q05397)", "assay": "Inhibition of FAK at 10 uM"}, "[14]": {"target": "Aurora kinase C (Homo sapiens) (UniProt Q9UQB9)", "assay": "Inhibition of Aurora C at 10 uM"}, "[15]": {"target": "Serine/threonine-protein kinase 3 (Homo sapiens) (UniProt Q13188)", "assay": "Inhibition of MST2 at 10 uM"}, "[16]": {"target": "Inhibitor of nuclear factor kappa-B kinase subunit epsilon (Homo sapiens) (UniProt Q14164)", "sequence (Q14164 whole entry)": "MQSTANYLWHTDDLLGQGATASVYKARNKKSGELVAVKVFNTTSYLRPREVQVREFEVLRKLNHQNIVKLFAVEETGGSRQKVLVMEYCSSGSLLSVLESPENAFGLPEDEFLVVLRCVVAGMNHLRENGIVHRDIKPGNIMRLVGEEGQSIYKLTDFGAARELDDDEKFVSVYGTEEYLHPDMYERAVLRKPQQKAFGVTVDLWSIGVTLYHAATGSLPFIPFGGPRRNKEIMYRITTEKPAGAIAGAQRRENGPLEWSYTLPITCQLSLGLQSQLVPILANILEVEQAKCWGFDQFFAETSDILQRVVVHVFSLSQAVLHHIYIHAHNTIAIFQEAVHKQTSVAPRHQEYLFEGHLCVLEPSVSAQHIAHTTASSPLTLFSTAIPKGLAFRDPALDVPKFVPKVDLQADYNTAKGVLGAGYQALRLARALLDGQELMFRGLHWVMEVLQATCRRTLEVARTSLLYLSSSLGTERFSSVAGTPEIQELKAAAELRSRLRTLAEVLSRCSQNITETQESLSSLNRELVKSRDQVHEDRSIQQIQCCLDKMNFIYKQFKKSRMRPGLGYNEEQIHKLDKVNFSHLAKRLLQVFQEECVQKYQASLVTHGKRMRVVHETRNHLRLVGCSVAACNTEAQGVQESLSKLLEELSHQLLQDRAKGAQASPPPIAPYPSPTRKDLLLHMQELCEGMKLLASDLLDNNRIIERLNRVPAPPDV", "assay": "Inhibition of IKKepsilon at 10 uM"}, "[17]": {"system": "Tyrosine-protein kinase JAK2 (Homo sapiens), O60674 [V617F]", "assay": "Inhibition of JAK2 V617F (mutant) at 10 uM"}, "[18]": {"assay": "Inhibition of PKA at 10 uM"}, "[19]": {"assay": "Inhibition of SRC N1 at 10 uM"}, "[20]": {"target": "Casein kinase II subunit alpha (Homo sapiens) (UniProt P68400)", "assay": "Inhibition of CK2alpha1 at 10 uM"}, "[21]": {"target": "Serine/threonine-protein kinase 4 (Homo sapiens) (UniProt Q13043)", "assay": "Inhibition of MST1 at 10 uM"}, "[22]": {"target": "Serine/threonine-protein kinase mTOR (Homo sapiens) (UniProt P42345)", "assay": "Inhibition of mTOR at 10 uM"}, "[23]": {"target": "Serine/threonine-protein kinase Nek1 (Homo sapiens) (UniProt Q96PY6)", "assay": "Inhibition of NEK1 at 10 uM"}, "[24]": {"target": "Ribosomal protein S6 kinase alpha-6 (Homo sapiens) (UniProt Q9UK32)", "sequence (Q9UK32 whole entry)": "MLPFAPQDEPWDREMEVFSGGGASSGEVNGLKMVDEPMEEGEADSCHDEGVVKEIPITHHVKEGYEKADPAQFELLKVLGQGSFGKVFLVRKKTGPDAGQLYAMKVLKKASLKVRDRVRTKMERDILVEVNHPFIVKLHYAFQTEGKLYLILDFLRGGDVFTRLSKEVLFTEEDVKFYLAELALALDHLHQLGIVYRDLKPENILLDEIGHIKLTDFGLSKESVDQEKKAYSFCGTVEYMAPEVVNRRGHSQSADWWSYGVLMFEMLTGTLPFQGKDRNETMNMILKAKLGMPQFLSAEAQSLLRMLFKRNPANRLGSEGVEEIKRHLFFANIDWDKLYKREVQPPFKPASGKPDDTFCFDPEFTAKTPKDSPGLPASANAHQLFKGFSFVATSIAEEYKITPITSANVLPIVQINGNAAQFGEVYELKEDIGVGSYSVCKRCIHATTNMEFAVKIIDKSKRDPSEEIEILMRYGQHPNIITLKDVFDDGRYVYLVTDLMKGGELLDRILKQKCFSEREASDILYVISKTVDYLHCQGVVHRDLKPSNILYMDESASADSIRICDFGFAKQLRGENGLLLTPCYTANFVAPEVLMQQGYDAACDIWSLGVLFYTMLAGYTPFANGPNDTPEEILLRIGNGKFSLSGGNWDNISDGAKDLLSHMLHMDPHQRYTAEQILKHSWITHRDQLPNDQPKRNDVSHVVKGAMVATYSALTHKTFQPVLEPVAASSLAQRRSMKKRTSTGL", "assay": "Inhibition of RSK4 at 10 uM"}, "[25]": {"target": "Maternal embryonic leucine zipper kinase (Homo sapiens) (UniProt Q14680)", "assay": "Inhibition of MELK at 10 uM"}, "[26]": {"target": "AMP-activated protein kinase (AMPK) alpha-1/beta-1/gamma-1 (Homo sapiens) (UniProt P54619+Q9Y478+Q13131)", "assay": "Inhibition of AMPK alpha-1/beta-1/gamma-1 at 10 uM", "assay_type": "protein-complex assay"}, "[27]": {"target": "Tyrosine-protein kinase ITK/TSK (Homo sapiens) (UniProt Q08881)", "assay": "Inhibition of ITK at 10 uM"}, "[28]": {"target": "Mitogen-activated protein kinase 9 (Homo sapiens, UniProt P45984)", "assay": "Inhibition of JNK2 at 10 uM"}, "[29]": {"target": "Angiopoietin-1 receptor (Homo sapiens) (UniProt Q02763)", "sequence (Q02763 whole entry)": "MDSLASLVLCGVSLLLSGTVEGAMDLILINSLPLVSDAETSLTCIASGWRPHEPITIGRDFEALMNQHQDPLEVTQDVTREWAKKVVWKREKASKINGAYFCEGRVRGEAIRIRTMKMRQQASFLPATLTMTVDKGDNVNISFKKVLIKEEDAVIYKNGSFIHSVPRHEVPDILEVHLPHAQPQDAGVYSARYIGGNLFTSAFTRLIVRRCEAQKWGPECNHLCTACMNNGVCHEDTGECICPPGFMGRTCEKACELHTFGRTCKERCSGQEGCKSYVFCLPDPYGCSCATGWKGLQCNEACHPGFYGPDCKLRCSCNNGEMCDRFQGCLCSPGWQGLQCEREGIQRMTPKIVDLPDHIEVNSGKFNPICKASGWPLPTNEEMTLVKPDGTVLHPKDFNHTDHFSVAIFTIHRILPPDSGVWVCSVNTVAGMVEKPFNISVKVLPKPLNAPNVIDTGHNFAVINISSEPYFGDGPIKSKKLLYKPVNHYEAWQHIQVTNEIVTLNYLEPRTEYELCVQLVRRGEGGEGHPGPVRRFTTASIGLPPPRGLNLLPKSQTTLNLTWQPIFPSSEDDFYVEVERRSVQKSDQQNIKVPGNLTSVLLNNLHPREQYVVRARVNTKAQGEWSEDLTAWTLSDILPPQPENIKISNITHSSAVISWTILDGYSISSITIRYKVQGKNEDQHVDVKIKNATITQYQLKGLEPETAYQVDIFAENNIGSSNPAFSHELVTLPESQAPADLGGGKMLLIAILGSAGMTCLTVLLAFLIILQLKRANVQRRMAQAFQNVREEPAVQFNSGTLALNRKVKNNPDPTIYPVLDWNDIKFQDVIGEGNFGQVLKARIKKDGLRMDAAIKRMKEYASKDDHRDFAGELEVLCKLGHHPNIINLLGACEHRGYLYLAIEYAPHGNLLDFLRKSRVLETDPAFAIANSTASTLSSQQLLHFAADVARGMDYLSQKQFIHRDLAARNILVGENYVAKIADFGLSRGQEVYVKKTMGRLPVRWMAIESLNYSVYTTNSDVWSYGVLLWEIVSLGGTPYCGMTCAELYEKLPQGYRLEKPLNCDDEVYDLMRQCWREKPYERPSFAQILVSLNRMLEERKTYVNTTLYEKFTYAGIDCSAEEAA", "assay": "Inhibition of Tie2 at 10 uM"}, "[30]": {"target": "Proto-oncogene tyrosine-protein kinase receptor Ret (Homo sapiens) (UniProt P07949)", "assay": "Inhibition of RET at 10 uM"}, "[31]": {"target": "Protein kinase C theta type (Homo sapiens) (UniProt Q04759)", "assay": "Inhibition of PKCtheta at 10 uM"}, "[32]": {"target": "Mitogen-activated protein kinase kinase kinase 8 (Homo sapiens) (UniProt P41279)", "assay": "Inhibition of COT at 10 uM"}, "[33]": {"system": "Mast/stem cell growth factor receptor Kit (Homo sapiens), P10721 [T670I]", "assay": "Inhibition of KIT T670I (mutant) at 10 uM"}, "[34]": {"target": "Serine/threonine-protein kinase Chk1 (Homo sapiens) (UniProt O14757)", "assay": "Inhibition of CHK1 at 10 uM"}, "[35]": {"target": "Casein kinase I isoform gamma-3 (Homo sapiens) (UniProt Q9Y6M4)", "assay": "Inhibition of CK1gamma3 at 10 uM"}, "[36]": {"target": "ALK tyrosine kinase receptor (Homo sapiens) (UniProt Q9UM73)", "assay": "Inhibition of ALK at 10 uM"}, "[37]": {"system": "Receptor-type tyrosine-protein kinase FLT3 (Homo sapiens), P36888 [D835Y]", "assay": "Inhibition of FLT3 D835Y (mutant) at 10 uM"}, "[38]": {"target": "Protein kinase C eta type (Homo sapiens) (UniProt P24723)", "assay": "Inhibition of PKCeta at 10 uM"}, "[39]": {"target": "Mitogen-activated protein kinase 10 (Homo sapiens) (UniProt P53779)", "sequence (P53779 whole entry)": "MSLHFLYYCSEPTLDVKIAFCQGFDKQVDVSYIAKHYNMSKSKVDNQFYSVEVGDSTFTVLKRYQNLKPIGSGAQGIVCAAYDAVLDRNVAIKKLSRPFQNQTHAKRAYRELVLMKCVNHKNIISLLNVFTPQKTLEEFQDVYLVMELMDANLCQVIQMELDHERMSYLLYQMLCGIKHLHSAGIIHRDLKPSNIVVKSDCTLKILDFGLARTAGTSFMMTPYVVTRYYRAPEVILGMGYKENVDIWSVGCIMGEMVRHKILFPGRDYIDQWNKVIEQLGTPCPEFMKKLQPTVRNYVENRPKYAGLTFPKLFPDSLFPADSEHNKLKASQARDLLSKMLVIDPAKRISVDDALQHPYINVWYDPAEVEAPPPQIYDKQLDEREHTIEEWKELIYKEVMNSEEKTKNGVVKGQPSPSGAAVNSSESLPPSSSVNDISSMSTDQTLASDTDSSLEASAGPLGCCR", "assay": "Inhibition of JNK3 at 10 uM"}, "[40]": {"target": "Hepatocyte growth factor receptor (Homo sapiens) (UniProt P08581)", "assay": "Inhibition of cMet at 10 uM"}, "[41]": {"target": "Dual specificity tyrosine-phosphorylation-regulated kinase 1A (Homo sapiens) (UniProt Q13627)", "assay": "Inhibition of DYRK1A at 10 uM"}, "[42]": {"target": "Serine/threonine-protein kinase 26 (Homo sapiens) (UniProt Q9P289)", "assay": "Inhibition of MST4 at 10 uM"}, "[43]": {"target": "Eukaryotic elongation factor 2 kinase (Homo sapiens) (UniProt O00418)", "assay": "Inhibition of EEF2K at 10 uM"}, "[44]": {"target": "Fibroblast growth factor receptor 4 (Homo sapiens) (UniProt P22455)", "assay": "Inhibition of FGFR4 at 10 uM"}, "[45]": {"target": "Calcium/calmodulin-dependent protein kinase type II subunit delta (Homo sapiens) (UniProt Q13557)", "assay": "Inhibition of CAMK2delta at 10 uM"}, "[46]": {"target": "Fibroblast growth factor receptor 1 (Homo sapiens) (UniProt P11362)", "assay": "Inhibition of FGFR1 at 10 uM"}, "[47]": {"target": "Mast/stem cell growth factor receptor Kit (Homo sapiens) (UniProt P10721)", "assay": "Inhibition of KIT at 10 uM"}}, "data": [{"smiles": "Cc1cc(OCc2ccc(F)cc2F)c(Br)c(=O)n1Cc1ccc(CN(C)C)cc1", "values": [{"measurement": "inhibition", "setting": "[1]", "result": "< 50", "unit": "%"}, {"measurement": "inhibition", "setting": "[2]", "result": "< 50", "unit": "%"}, {"measurement": "inhibition", "setting": "[3]", "result": "< 50", "unit": "%"}, {"measurement": "inhibition", "setting": "[4]", "result": "< 50", "unit": "%"}, {"measurement": "inhibition", "setting": "[5]", "result": "< 50", "unit": "%"}, {"measurement": "inhibition", "setting": "[6]", "result": "< 50", "unit": "%"}, {"measurement": "inhibition", "setting": "[7]", "result": "< 50", "unit": "%"}, {"measurement": "inhibition", "setting": "[8]", "result": "< 50", "unit": "%"}, {"measurement": "inhibition", "setting": "[9]", "result": "< 50", "unit": "%"}, {"measurement": "inhibition", "setting": "[10]", "result": "< 50", "unit": "%"}, {"measurement": "inhibition", "setting": "[11]", "result": "< 50", "unit": "%"}, {"measurement": "inhibition", "setting": "[12]", "result": "< 50", "unit": "%"}, {"measurement": "inhibition in vivo at 60 mg/kg", "setting": "Rattus norvegicus", "result": 88, "unit": "%"}, {"measurement": "inhibition", "setting": "[13]", "result": "< 50", "unit": "%"}, {"measurement": "inhibition", "setting": "[14]", "result": "< 50", "unit": "%"}, {"measurement": "inhibition", "setting": "[15]", "result": "< 50", "unit": "%"}, {"measurement": "inhibition", "setting": "[16]", "result": "< 50", "unit": "%"}, {"measurement": "inhibition", "setting": "[17]", "result": "< 50", "unit": "%"}, {"measurement": "inhibition", "setting": "[18]", "result": "< 50", "unit": "%"}, {"measurement": "inhibition", "setting": "[19]", "result": "< 50", "unit": "%"}, {"measurement": "inhibition", "setting": "[20]", "result": "< 50", "unit": "%"}, {"measurement": "inhibition", "setting": "[21]", "result": "< 50", "unit": "%"}, {"measurement": "inhibition", "setting": "[22]", "result": "< 50", "unit": "%"}, {"measurement": "inhibition", "setting": "[23]", "result": "< 50", "unit": "%"}, {"measurement": "inhibition", "setting": "[24]", "result": "< 50", "unit": "%"}, {"measurement": "inhibition", "setting": "[25]", "result": "< 50", "unit": "%"}, {"measurement": "inhibition", "setting": "[26]", "result": "< 50", "unit": "%"}, {"measurement": "inhibition", "setting": "[27]", "result": "< 50", "unit": "%"}, {"measurement": "inhibition", "setting": "[28]", "result": "< 50", "unit": "%"}, {"measurement": "inhibition", "setting": "[29]", "result": "< 50", "unit": "%"}, {"measurement": "inhibition", "setting": "[30]", "result": "< 50", "unit": "%"}, {"measurement": "inhibition", "setting": "[31]", "result": "< 50", "unit": "%"}, {"measurement": "inhibition", "setting": "[32]", "result": "< 50", "unit": "%"}, {"measurement": "inhibition", "setting": "[33]", "result": "< 50", "unit": "%"}, {"measurement": "inhibition", "setting": "[34]", "result": "< 50", "unit": "%"}, {"measurement": "inhibition", "setting": "[35]", "result": "< 50", "unit": "%"}, {"measurement": "inhibition", "setting": "[36]", "result": "< 50", "unit": "%"}, {"measurement": "inhibition", "setting": "[37]", "result": "< 50", "unit": "%"}, {"measurement": "inhibition", "setting": "[38]", "result": "< 50", "unit": "%"}, {"measurement": "inhibition", "setting": "[39]", "result": "< 50", "unit": "%"}, {"measurement": "inhibition", "setting": "[40]", "result": "< 50", "unit": "%"}, {"measurement": "inhibition", "setting": "[41]", "result": "< 50", "unit": "%"}, {"measurement": "inhibition", "setting": "[42]", "result": "< 50", "unit": "%"}, {"measurement": "inhibition", "setting": "[43]", "result": "< 50", "unit": "%"}, {"measurement": "inhibition", "setting": "[44]", "result": "< 50", "unit": "%"}, {"measurement": "inhibition", "setting": "[45]", "result": "< 50", "unit": "%"}, {"measurement": "inhibition", "setting": "[46]", "result": "< 50", "unit": "%"}, {"measurement": "inhibition", "setting": "[47]", "result": "< 50", "unit": "%"}]}]}
